Columns and labels:
Experiment in all cases: relative viability (nuclei count vs DMSO), 5 days (fraction); higher = more cells survive
Linsitinib + AZD7762 = compound: C[C@]1(O)C[C@@H](c2nc(-c3ccc4ccc(-c5ccccc5)nc4c3)c3c(N)nccn32)C1 [Linsitinib] + NC(=O)Nc1cc(-c2cccc(F)c2)sc1C(=O)N[C@H]1CCCNC1 [AZD7762] (partner 0.2 µM)
Procedure, shortened: (§1)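 Dosing by pin tool came one day after lung cancer cell lines were seeded in 1536-well plates, using either one drug or a fixed anchor-drug dose plus five library-drug doses (not always all listed) in √10 steps. After 5 days, nuclei were counted on 4× images. Relative viability is treated-well nuclei count divided by vehicle-well nuclei count, and values are medians of duplicate plates.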

Ispinesib + Tozasertib = compound: Cc1ccc(C(=O)N(CCCN)[C@@H](c2nc3cc(Cl)ccc3c(=O)n2Cc2ccccc2)C(C)C)cc1 [Ispinesib] + Cc1cc(Nc2cc(N3CCN(C)CC3)nc(Sc3ccc(NC(=O)C4CC4)cc3)n2)n[nH]1 [Tozasertib] (partner 0.1 µM)
Procedure, shortened: as §1

Linsitinib + Pictilisib = compound: C[C@]1(O)C[C@@H](c2nc(-c3ccc4ccc(-c5ccccc5)nc4c3)c3c(N)nccn32)C1 [Linsitinib] + CS(=O)(=O)N1CCN(Cc2cc3nc(-c4cccc5[nH]ncc45)nc(N4CCOCC4)c3s2)CC1 [Pictilisib] (partner 1 µM)
Procedure, shortened: as §1

Linsitinib + Palbociclib = compound: C[C@]1(O)C[C@@H](c2nc(-c3ccc4ccc(-c5ccccc5)nc4c3)c3c(N)nccn32)C1 [Linsitinib] + CC(=O)c1c(C)c2cnc(Nc3ccc(N4CCNCC4)cn3)nc2n(C2CCCC2)c1=O [Palbociclib] (partner 0.5 µM)
Procedure, shortened: as §1

| Cell Line | relative viability (Linsitinib + AZD7762; first compound 0.01 µM) | relative viability (Linsitinib + AZD7762; first compound 0.03162 µM) | relative viability (Linsitinib + AZD7762; first compound 0.1 µM) | relative viability (Linsitinib + AZD7762; first compound 0.3162 µM) | relative viability (Linsitinib + AZD7762; first compound 1 µM) | relative viability (Ispinesib + Tozasertib; first compound 0.001 µM) | relative viability (Ispinesib + Tozasertib; first compound 0.003162 µM) | relative viability (Ispinesib + Tozasertib; first compound 0.01 µM) | relative viability (Ispinesib + Tozasertib; first compound 0.03162 µM) | relative viability (Ispinesib + Tozasertib; first compound 0.1 µM) | relative viability (Linsitinib + Pictilisib; first compound 0.01 µM) | relative viability (Linsitinib + Pictilisib; first compound 0.03162 µM) | relative viability (Linsitinib + Pictilisib; first compound 0.1 µM) | relative viability (Linsitinib + Pictilisib; first compound 0.3162 µM) | relative viability (Linsitinib + Pictilisib; first compound 1 µM) | relative viability (Linsitinib + Palbociclib; first compound 0.01 µM) | relative viability (Linsitinib + Palbociclib; first compound 0.03162 µM) | relative viability (Linsitinib + Palbociclib; first compound 0.1 µM) | relative viability (Linsitinib + Palbociclib; first compound 0.3162 µM) | relative viability (Linsitinib + Palbociclib; first compound 1 µM) |
| --- | --- | --- | --- | --- | --- | --- | --- | --- | --- | --- | --- | --- | --- | --- | --- | --- | --- | --- | --- | --- |
| NCI-H23 | 0.239 | 0.205 | 0.215 | 0.254 | 0.23 | 0.428 | 0.414 | 0.74 | 0.33 | 0.272 | 0.445 | 0.412 | 0.521 | 0.184 | 0.395 | 0.519 | 0.415 | 0.415 | 0.326 | 0.313 |
| HCC-827 | 0.151 | 0.223 | 0.207 |  | 0.221 | 0.43 | 0.534 | 0.43 | 0.446 | 0.372 | 1.07 | 1.19 | 1.11 | 0.88 | 1.12 | 0.408 | 0.572 | 0.468 |  | 0.529 |
| PC-3 [JPC-3] | 0.784 | 0.758 | 0.846 | 0.495 | 0.597 | 0.899 | 0.902 | 0.961 | 1.01 | 0.59 | 0.804 | 0.777 | 0.665 | 0.517 | 0.52 | 0.548 | 0.544 | 0.558 | 0.471 | 0.493 |
| NCI-H1355 | 0.66 | 0.604 | 0.633 | 0.602 | 0.329 | 0.566 | 0.608 | 0.548 | 0.503 | 0.486 | 0.433 | 0.437 | 0.343 | 0.228 | 0.359 | 0.384 | 0.345 | 0.309 | 0.308 | 0.269 |
| NCI-H727 | 0.39 | 0.503 | 0.346 | 0.363 | 0.376 | 0.598 | 0.556 | 0.647 | 0.621 | 0.668 | 0.414 | 0.353 | 0.342 | 0.281 | 0.17 | 0.708 | 0.719 | 0.63 | 0.553 | 0.554 |
| NCI-H1975 | 0.697 | 0.673 | 0.685 | 0.685 | 0.562 | 0.964 | 0.956 | 0.795 | 0.557 | 0.215 | 0.286 | 0.253 | 0.246 | 0.255 | 0.178 | 0.571 | 0.588 | 0.517 | 0.429 | 0.39 |
| NCI-H460 | 0.566 | 0.614 | 0.698 |  | 0.398 | 0.4 | 0.577 | 0.503 | 0.417 | 0.0671 | 0.308 | 0.36 | 0.278 | 0.494 | 0.225 | 0.192 | 0.0289 | 0.184 |  | 0.142 |
| EPLC-272H | 0.186 | 0.22 | 0.221 |  | 0.334 | 0.211 | 0.448 | 0.24 | 0.114 | 0.25 | 0.339 | 0.306 | 0.286 |  | 0.23 | 0.337 | 0.351 | 0.327 |  | 0.335 |
| NCI-H322M | 0.575 | 0.411 | 0.485 | 0.49 | 0.414 | 0.531 | 0.275 | 0.445 | 0.333 | 0.396 | 0.496 | 0.502 | 0.506 | 0.503 | 0.433 | 0.475 | 0.521 | 0.492 | 0.478 | 0.463 |
| NCI-H2405 | 0.74 | 0.662 | 0.711 | 0.859 | 0.474 | 0.798 | 0.7 | 0.858 | 0.771 | 0.965 | 0.428 | 0.329 | 0.43 | 0.69 | 0.332 | 0.503 | 0.537 | 0.521 | 0.47 | 0.473 |
| NCI-H1666 | 0.704 | 0.834 | 0.828 | 0.645 | 0.597 | 0.56 | 0.601 | 0.613 | 0.542 | 0.454 | 0.376 | 0.286 | 0.296 | 0.162 | 0.307 | 0.626 | 0.565 | 0.656 | 0.526 | 0.604 |
| NCI-H358 | 0.668 | 0.473 | 0.563 | 0.366 | 0.321 | 0.1 | 0.101 | 0.0892 | 0.116 | 0.0906 | 0.317 | 0.232 | 0.333 | 0.261 | 0.281 | 0.144 | 0.14 | 0.121 | 0.113 | 0.107 |
| H3255 | 0.7 | 0.884 | 0.813 | 0.69 | 0.806 | 0.599 | 0.767 | 0.717 | 0.601 | 0.614 | 0.571 | 0.52 | 0.566 | 0.468 | 0.45 | 0.309 | 0.341 | 0.313 | 0.321 | 0.299 |
| LCLC-103H | 0.785 | 0.721 | 0.84 | 0.9 | 0.634 | 0.5 | 0.608 | 0.584 | 0.382 | 0.485 | 0.686 | 0.566 | 0.596 | 0.718 | 0.535 | 0.435 | 0.414 | 0.427 | 0.367 | 0.486 |
| NCI-H2347 | 0.645 | 0.736 | 0.792 | 0.747 | 0.669 | 0.529 | 0.545 | 0.65 | 0.55 | 0.52 | 0.802 | 0.609 | 0.597 | 0.695 | 0.717 | 0.372 | 0.498 | 0.468 | 0.34 | 0.399 |
| LK-2 | 0.295 | 0.482 | 0.245 | 0.179 | 0.154 | 0.159 | 0.175 | 0.183 | 0.158 | 0.158 | 0.698 | 0.529 | 0.553 | 0.494 | 0.851 | 0.968 | 0.58 | 0.615 | 0.371 | 0.554 |

Source: the supplement of paper PMC10307832
